This is an account of results in patent publication US9260425B2 (Genetech, Inc., priority 2011, dated 2016).

By Ki is commonly meant the dissociation constant of the complex between target and ligand, obtained from inhibition or displacement.

Sequence of Pim-1 (P11309 whole entry): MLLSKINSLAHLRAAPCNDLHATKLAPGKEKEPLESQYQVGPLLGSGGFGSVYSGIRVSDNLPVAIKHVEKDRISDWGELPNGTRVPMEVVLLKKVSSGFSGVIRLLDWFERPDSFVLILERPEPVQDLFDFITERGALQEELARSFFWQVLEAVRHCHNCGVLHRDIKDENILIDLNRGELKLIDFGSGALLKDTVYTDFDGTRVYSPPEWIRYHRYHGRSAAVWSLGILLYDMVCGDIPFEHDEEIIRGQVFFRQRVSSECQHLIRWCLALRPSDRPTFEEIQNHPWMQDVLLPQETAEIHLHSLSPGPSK

The test has as its target Pim-1 (Homo sapiens (Human), UniProt P11309). Description: Pim kinase binding activity assay (Example 901), PIM-1 enzyme, Caliper microfluidic peptide phosphorylation. It is filed as biochemical. Particulars: 20 pM PIM-1, 10 μM ATP, 1 μM FAM-peptide, 90 minutes at room temperature. On the procedure: Pim Kinase Binding Activity
A fluorescent-labeled Pim-specific peptide substrate, was custom synthesized by American Peptide Company (Sunnyvale, Calif.). Reaction Buffer contained 10 mM HEPES, pH 7.2, 10 mM MgCl2, 0.01% Tween 20, 2 mM DTT. Termination Buffer contained 190 mM HEPES, pH 7.2, 0.015% Brij-35, 0.2% Coating Reagent 3 (Caliper Life Sciences, Hopkinton, Mass.), 20 mM EDTA. Separation Buffer contained 100 mM HEPES, pH 7.2, 0.015% Brij-35, 0.1% Coating Reagent 3, 1:200 Coating Reagent 8 (Caliper Life Sciences, Hopkinton, Mass.), 10 mM EDTA and 5% DMSO.
PIM reactions were carried out in a final volume of 10 μL per well in a 384-well plate. A standard enzymatic reaction, initiated by the addition of 5 μL 2×ATP and test compound to 5 μL of 2× enzyme and FAM-peptide, contained 20 pM PIM-1, 50 pM PIM-2, or 55 pM PIM-3, 1 μM FAM-peptide, and 10 μM ATP, in Reaction Buffer. After 90 minutes of incubation at room temperature, the phosphorylation reaction was stopped by the addition of 10 μL Termination Buffer. The product and substrate in each independent reaction were separated on a 12-sipper microfluidic chip (Caliper Life Sciences, Hopkinton, Mass.) run on a Caliper LC3000® (Caliper Life Sciences, Hopkinton, Mass.). The separation of product and substrate was optimized by choosing voltages and pressure using Caliper's Optimizer software (Hopkinton, Mass.). […] The product and substrate fluorophore were excited at 488 nm and detected at 530 nm. Substrate conversion was calculated from the electropherogram using HTS Well Analyzer software (Caliper Life Sciences, Hopkinton, Mass.). Ki values for the test compound were calculated.
Regarding `Fc1ccccc1-c1n[nH]c2cnc(-c3cncnc3)cc12` [Example 138, 3-(2-fluorophenyl)-5-(pyrimidin-5-yl)-1H-pyrazolo[3,4-c]pyridine], the Ki came out at 577 nM.

In turn, `NC1CCCN(c2ccncc2-c2cc3c(-c4ccccc4F)n[nH]c3cn2)CC1` (stereo not drawn) [Example 139, 1-(3-(3-(2-fluorophenyl)-1H-pyrazolo[3,4-c]pyridin-5-yl)pyridin-4-yl)azepan-4-amine] came in with a Ki of 255 nM.

The compound `NC[C@@H]1CCCN(c2ccncc2-c2cc3c(-c4ccccc4F)n[nH]c3cn2)C1` [Example 140, (S)-(1-(3-(3-(2-fluorophenyl)-1H-pyrazolo[3,4-c]pyridin-5-yl)pyridin-4-yl)piperidin-3-yl)methanamine] yielded a Ki of 412 nM.

Regarding `c1ccc(-c2n[nH]c3cnc(-n4cncn4)cc23)cc1` [Example 142, 3-phenyl-5-(1H-1,2,4-triazol-1-yl)-1H-pyrazolo[3,4-c]pyridine], affinity was put at a Ki of 306 nM.

For the compound `NCCNc1cccc(-c2n[nH]c3cnc(-c4cccnc4)cc23)n1` [Example 143, N1-(6-(5-(pyridin-3-yl)-1H-pyrazolo[3,4-c]pyridin-3-yl)pyridin-2-yl)ethane-1,2-diamine], the Ki is 0.312 nM.

For the compound `N#CCc1n[nH]c2cnc(-c3cn[nH]c3)cc12` [Example 145, 2-(5-(1H-pyrazol-4-yl)-1H-pyrazolo[3,4-c]pyridin-3-yl)acetonitrile], affinity was put at a Ki of 324 nM.

As for `c1ccc(-c2n[nH]c3cnc(-n4ccnc4)cc23)cc1` [Example 146, 5-(1H-imidazol-1-yl)-3-phenyl-1H-pyrazolo[3,4-c]pyridine], the affinity corresponds to a Ki of 26.7 nM.

In turn, `Fc1ccccc1-c1n[nH]c2cnc(-c3cnccc3O[C@H]3CCCNC3)cc12` [Example 148, (S)-3-(2-fluorophenyl)-5-(4-(piperidin-3-yloxy)pyridin-3-yl)-1H-pyrazolo[3,4-c]pyridin] had a Ki of 0.342 nM.

Compound `c1ccc(-c2n[nH]c3cnc(-c4cncnc4)cc23)cc1` [Example 150, 3-phenyl-5-(pyrimidin-5-yl)-1H-pyrazolo[3,4-c]pyridine] had a Ki of 209 nM.

On to `Fc1ccccc1-c1n[nH]c2cnc(-c3cnccc3OCC3CCNCC3)cc12` [Example 155, 3-(2-fluorophenyl)-5-(4-(piperidin-4-ylmethoxy)pyridin-3-yl)-1H-pyrazolo[3,4-c]pyridine], for which the Ki came to 0.614 nM.

The compound `c1cncc(-c2cc3c(-c4cn[nH]c4)n[nH]c3cn2)c1` [Example 156, 3-(1H-pyrazol-4-yl)-5-(pyridin-3-yl)-1H-pyrazolo[3,4-c]pyridine] had a Ki of 2.31 nM.

In the case of `NC1CCN(c2cncc(-c3cc4c(-c5ccccc5F)n[nH]c4cn3)c2)CC1` [Example 157, 1-(5-(3-(2-fluorophenyl)-1H-pyrazolo[3,4-c]pyridin-5-yl)pyridin-3-yl)piperidin-4-amine], affinity was put at a Ki of 1.31 nM.

`NC1CCN(c2cncc(-c3n[nH]c4cnc(-c5cccnc5)cc34)c2)CC1` [Example 158, 1-(5-(5-(pyridin-3-yl)-1H-pyrazolo[3,4-c]pyridin-3-yl)pyridin-3-yl)piperidin-4-amine] returned a Ki of 2.1 nM.

With `NCCNc1cc(-c2n[nH]c3cnc(-c4cccnc4)cc23)ccn1` [Example 159, N1-(4-(5-(pyridin-3-yl)-1H-pyrazolo[3,4-c]pyridin-3-yl)pyridin-2-yl)ethane-1,2-diamine], the Ki was 0.941 nM.

With `NC1CCN(c2cc(-c3n[nH]c4cnc(-c5cccnc5)cc34)ccn2)CC1` [Example 160], the affinity, expressed as Ki, was 2.78 nM.

`c1cncc(-c2cc3c(-c4cccc(N5CCNCC5)n4)n[nH]c3cn2)c1` [Example 162, 3-(6-(piperazin-1-yl)pyridin-2-yl)-5-(pyridin-3-yl)-1H-pyrazolo[3,4-c]pyridine] returned a Ki of 0.037 nM.

`Cn1cc(-c2cc3c(-c4cnn(C)c4)n[nH]c3cn2)cn1` [Example 163, 3,5-bis(1-methyl-1H-pyrazol-4-yl)-1H-pyrazolo[3,4-c]pyridine] registered a Ki of 1.92 nM.

As for `NC[C@H]1CCN(c2cncc(-c3cc4c(-c5ccccc5F)n[nH]c4cn3)c2)C1` [Example 164, (R)-(1-(5-(3-(2-fluorophenyl)-1H-pyrazolo[3,4-c]pyridin-5-yl)pyridin-3-yl)pyrrolidin-3-yl)methanamine], the Ki was determined as 1.9 nM.

`NCC1CCN(c2cncc(-c3n[nH]c4cnc(-c5cccnc5)cc34)c2)CC1` [Example 165, (1-(5-(5-(pyridin-3-yl)-1H-pyrazolo[3,4-c]pyridin-3-yl)pyridin-3-yl)piperidin-4-yl)methanamine] had a Ki of 0.985 nM.

The compound `NC1CCCN(c2cncc(-c3cc4c(-c5ccccc5F)n[nH]c4cn3)c2)CC1` (stereo not drawn) [Example 166, 1-(5-(3-(2-fluorophenyl)-1H-pyrazolo[3,4-c]pyridin-5-yl)pyridin-3-yl)azepan-4-amine] showed a Ki of 0.574 nM.

In the case of `NCC1CCN(c2cncc(-c3cc4c(-c5ccccc5F)n[nH]c4cn3)c2)CC1` [Example 167, (1-(5-(3-(2-fluorophenyl)-1H-pyrazolo[3,4-c]pyridin-5-yl)pyridin-3-yl)piperidin-4-yl)methanamine], the affinity, expressed as Ki, was 1.71 nM.

Regarding `NC[C@H]1CCN(c2cncc(-c3n[nH]c4cnc(-c5cccnc5)cc34)c2)C1` [Example 168, (R)-(1-(5-(5-(pyridin-3-yl)-1H-pyrazolo[3,4-c]pyridin-3-yl)pyridin-3-yl)pyrrolidin-3-yl)methanamine], the affinity, expressed as Ki, was 1.6 nM.

Turning to `NC1CCCN(c2cncc(-c3n[nH]c4cnc(-c5cccnc5)cc34)c2)CC1` (stereo not drawn) [Example 169, 1-(5-(5-(pyridin-3-yl)-1H-pyrazolo[3,4-c]pyridin-3-yl)pyridin-3-yl)azepan-4-amine], the Ki came out at 1.35 nM.

In the case of `c1cncc(-c2cc3c(-c4cncc(NC5CCNCC5)c4)n[nH]c3cn2)c1` [Example 170, N-(piperidin-4-yl)-5-(5-(pyridin-3-yl)-1H-pyrazolo[3,4-c]pyridin-3-yl)pyridin-3-amine], the Ki is 0.443 nM.

`Fc1ccccc1-c1n[nH]c2cnc(-c3cncc(NC4CCNCC4)c3)cc12` [Example 171, 5-(3-(2-fluorophenyl)-1H-pyrazolo[3,4-c]pyridin-5-yl)-N-(piperidin-4-yl)pyridin-3-amine] yielded a Ki of 2.42 nM.

Regarding `COc1ccc(F)c(-c2n[nH]c3cnc(-c4cnn(C)c4)cc23)c1` [Example 172, 3-(2-fluoro-5-methoxyphenyl)-5-(1-methyl-1H-pyrazol-4-yl)-1H-pyrazolo[3,4-c]pyridine], the Ki was determined as 3.76 nM.

`Cn1cc(-c2cc3c(-c4cccc(N5CCC(N)CC5)n4)n[nH]c3cn2)cn1` [Example 174, 1-(6-(5-(1-methyl-1H-pyrazol-4-yl)-1H-pyrazolo[3,4-c]pyridin-3-yl)pyridin-2-yl)piperidin-4-amine] came in with a Ki of 0.086 nM.

The compound `c1cncc(-c2cc3c(-c4cnn(C5CCNCC5)c4)n[nH]c3cn2)c1` [Example 175, 3-(1-(piperidin-4-yl)-1H-pyrazol-4-yl)-5-(pyridin-3-yl)-1H-pyrazolo[3,4-c]pyridine] gave a Ki of 0.3 nM.

`c1cncc(-c2cc3c(-c4cccnc4)n[nH]c3cn2)c1` [Example 176, 3,5-di(pyridin-3-yl)-1H-pyrazolo[3,4-c]pyridine] had a Ki of 6.46 nM.

With `NC(=O)Cn1cc(-c2cc3c(-c4cccc(F)n4)n[nH]c3cn2)cn1` [Example 178, 2-(4-(3-(6-fluoropyridin-2-yl)-1H-pyrazolo[3,4-c]pyridin-5-yl)-1H-pyrazol-1-yl)acetamide], the affinity, expressed as Ki, was 17.6 nM.
